Where two headings read alike, the source gives them in different places.
Tests used:
[1] = test system: SH-SY5Y M-currents (KCNQ2, KCNQ3 and KCNQ5); assay: SH-SY5Y native cell line FLIPR assay (voltage-sensitive dye DiBAC); assay type: cell-based, mouse neuroblastoma, rat glioma hybrid cell line; conditions: SH-SY5Y native cell line, read-out: SH-SY5Y EC50
Summary of the method: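 Response is peak DiBAC fluorescence change, normalised to the maximum from a positive control agent, sampled every 30 s over 25 min. Before compound addition, SH-SY5Y cells differentiated with PGE1 plus isomethylbutylxanthine were dye-loaded for 1 h in EBSS with […] DiBAC.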

[2] = test system: electroshock seizure, Male Wistar rats; assay: In vivo rat assay for anti-convulsant activity (rat MES, electroshock seizure); conditions: for Rat MES activity: single dose screening, typically 10 mg/kg, animals protected from hind limb extension; for ED50: Rattus norvegicus, po
Description: Male Wistar rats were housed 4 per cage on a regular light/dark cycle (lights on 0600-1800) for one week prior to anti-convulsant testing. The apparatus used to induce electroshock seizure was obtained from Walhquist Instrument Co., Salt Lake City, Utah. The shock level was set at 150 mA and the duration at 0.2 seconds. A drop of 1% proparacaine solution was placed in each eye of a rat, the electrodes were placed over the eyes, and the shock was administered. Latency to hind limb extension was measured to the nearest 0.1 second.
The KCNQ opener was homogenized in either 0.5% carboxymethylcellulose in water or 0.5% methylcellulose in water) and administered orally through a steel 18-gauge rat gavage tube in a volume of 2 mL/kg of body weight. In the single dose screening assay, latency to seizure for the vehicle group and the KCNQ opener group were compared using t-test. Typically a dose of 10 mg/kg of the opener is used. However, openers can be run n a dose-response experiment where doses of 1, 3, 10 and 30 mg/Kg are used.
In the single dose screening assay, latency to seizure for the vehicle and the 10 mg/kg groups were compared using t-test. Latencies to seizure in the dose response studies were submitted to analysis of variance and all dose groups were compared to vehicle using Dunnett's method (JMP© ver 5.1, SAS). In all cases an effect was considered significant if p≦0.05.

EC50 ([1]; FLIPR assay, Table 1) [nM]	Compound	Rat MES activity ([2]; oral)	other results
500 to 3000	C[C@H](CC(=O)Nc1nc2ccc(C(F)(F)F)cn2c1C1CC1)C(F)(F)F [Compound 89, (R)—N-(3-cyclopropyl-6-(trifluoromethyl)imidazo[1,2-a]pyridin-2-yl)-4,4,4-trifluoro-3-methylbutanamide]	+++ (+++ 7-8 animals protected)	ED50 ([2]; rat MES dose-response): 5.8 mg/kg
< 500	CC(CC(=O)Nc1nc2ccc(C(F)(F)F)cn2c1CC(C)(C)C)C(F)(F)F (stereo not drawn) [Compound 23, 4,4,4-trifluoro-3-methyl-N-(3-neopentyl-6-(trifluoromethyl)imidazoyl)butanamide]	+ (+ 2-3 animals protected)	–
< 500	Cc1ccc2nc(NC(=O)CC(C)C(F)(F)F)c(CC(C)(C)C)n2n1 (stereo not drawn) [Compound 68, 4,4,4-trifluoro-3-methyl-N-(6-methyl-3-neopentylimidazo[1,2-b]pyridazin-2-yl)butanamide]	+++ (+++ 7-8 animals protected)	–
< 500	CC(C)(C)Cc1c(NC(=O)Cc2ccccc2)nc2ccc(C(F)(F)F)cn12 [Compound 20, N-(3-neopentyl-6-(trifluoromethyl)imidazo[1,2-a]pyridin-2-yl)-2-phenylacetamide]	+ (+ 2-3 animals protected)	–
< 500	CC(C)(C)Cc1c(NC(=O)C2CCCCC2)nc2ccc(C(F)(F)F)cn12 [Compound 59, N-(3-neopentyl-6-(trifluoromethyl)imidazo[1,2-a]pyridin-2-yl)cyclohexanecarboxamide]	–	–

The next lines start with the compound.

Compound	EC50 ([1]; FLIPR assay, Table 1) [nM]	Rat MES activity ([2]; oral)	other results
CC(C)(C)CC(=O)Nc1nc2ccccn2c1-c1ccc(OC(F)(F)F)cc1 [Compound 225, 3,3-dimethyl-N-(3-(4-(trifluoromethoxy)phenyl)imidazo[1,2-a]pyridin-2-yl)butanamide]	–	++ (++ 4-6 animals protected)	EC50 ([1]; FLIPR assay, Table 2): < 500 nM
CC(C)(C(=O)Nc1nc2ccc(C(F)(F)F)nn2c1C1CC1)C(F)(F)F [Compound 435, N-(3-cyclopropyl-6-(trifluoromethyl)imidazo[1,2-b]pyridazin-2-yl)-3,3,3-trifluoro-2,2-dimethylpropanamide]	–	+++ (+++ 7-8 animals protected)	EC50 ([1]; FLIPR assay (Table 6)): 500 to 3000 nM
O=C(Nc1nc2ccc(C(F)(F)F)cn2c1C1CCCC1)c1ccc(F)c(F)c1 [Compound 430, N-(3-cyclopentyl-6-(trifluoromethyl)imidazo[1,2-a]pyridin-2-yl)-3,4-difluorobenzamide]	–	++ (++ 4-6 animals protected)	EC50 ([1]; FLIPR assay (Table 6)): 500 to 3000 nM; ED50 ([2]; rat MES dose-response): 2.3 mg/kg
CC(C)(CC(=O)Nc1nc2ccc(C(F)(F)F)nn2c1C1CCC1)C(F)(F)F [Compound 439, N-(3-cyclobutyl-6-(trifluoromethyl)imidazo[1,2-b]pyridazin-2-yl)-4,4,4-trifluoro-3,3-dimethylbutanamide]	–	+++ (+++ 7-8 animals protected)	EC50 ([1]; FLIPR assay (Table 6)): < 500 nM; ED50 ([2]; rat MES dose-response): 0.47 mg/kg
CC(C)(CC(=O)Nc1nc2ccc(F)cn2c1C1CCC1)C(F)(F)F [Compound 446, N-(3-cyclobutyl-6-fluoroimidazo[1,2-a]pyridin-2-yl)-4,4,4-trifluoro-3,3-dimethylbutanamide]	–	+++ (+++ 7-8 animals protected)	EC50 ([1]; FLIPR assay (Table 6)): < 500 nM
CC(C)(C)CC(=O)Nc1nc2ccc(Cl)nn2c1-c1ccc(C(F)(F)F)cc1 [Compound 271, N-(6-chloro-3-(4-(trifluoromethyl)phenyl)imidazo[1,2-b]pyridazin-2-yl)-3,3-dimethylbutanamide]	–	++ (++ 4-6 animals protected)	EC50 ([1]; FLIPR assay, Table 2): < 500 nM
CC(C)(C)CC(=O)Nc1nc2ccc(C(F)(F)F)cn2c1CC1CCCCC1 [Compound 32, N-(3-(cyclohexylmethyl)-6-(trifluoromethyl)imidazo[1,2-a]pyridin-2-yl)-3,3-dimethylbutanamide]	< 500	+ (+ 2-3 animals protected)	–
CC(C)(C)CCC(=O)Nc1nc2ccc(C(F)(F)F)cn2c1CC(C)(C)C [Compound 24, 4,4-dimethyl-N-(3-neopentyl-6-(trifluoromethyl)imidazo[1,2-a]pyridin-2-yl)pentanamide]	< 500	+ (+ 2-3 animals protected)	–
N-(3-cyclopropyl-6-(trifluoromethyl)imidazo[1,2-b]pyridazin-2-yl)-4,4,4-trifluoro-3,3-dimethylbutanamide [Compound 436]	–	–	EC50 ([1]; FLIPR assay (Table 6)): 500 to 3000 nM; ED50 (mpk) ([2]; rat MES dose-response, oral): 0.7 mpk
CC(C)(C(=O)Nc1nc2ccc(C(F)(F)F)nn2c1C1CCC1)C(F)(F)F [Compound 437, N-(3-cyclobutyl-6-(trifluoromethyl)imidazo[1,2-b]pyridazin-2-yl)-3,3,3-trifluoro-2,2-dimethylpropanamide]	–	+++ (+++ 7-8 animals protected)	EC50 ([1]; FLIPR assay (Table 6)): 500 to 3000 nM
Cc1ccc2nc(NC(=O)Cc3ccc(F)cc3)c(-c3cccc(C(F)(F)F)c3)n2n1 [Compound 309, 2-(4-fluorophenyl)-N-(6-methyl-3-(3-(trifluoromethyl)phenyl)imidazo[1,2-b]pyridazin-2-yl)acetamide]	–	–	EC50 ([1]; FLIPR assay, Table 2): < 500 nM
CC(C)CC(=O)Nc1nc2ccc(C(F)(F)F)cn2c1CC(C)(C)C [Compound 63, 3-methyl-N-(3-neopentyl-6-(trifluoromethyl)imidazo[1,2-a]pyridin-2-yl)butanamide]	500 to 3000	–	–
O=C(COc1ccc(Cl)cc1Cl)Nc1nc2ccc(F)cn2c1-c1ccc(OC(F)(F)F)cc1 [Compound 247, 2-(2,4-dichlorophenoxy)-N-(6-fluoro-3-(4-(trifluoromethoxy)phenyl)imidazo[1,2-a]pyridin-2-yl)acetamide]	–	–	EC50 ([1]; FLIPR assay, Table 2): 3000 to 10000 nM
CC(C)(C)CC(=O)Nc1nc2ccc(F)cn2c1-c1ccccn1 [Compound 347, N-(6-fluoro-3-(pyridin-2-yl)imidazo[1,2-a]pyridin-2-yl)-3,3-dimethylbutanamide]	–	–	EC50 ([1]; FLIPR assay (Table 3)): 3000 to 10000 nM
CC(CC(=O)Nc1nc2ccccn2c1-c1cccc(C(F)(F)F)c1)C(F)(F)F (stereo not drawn) [Compound 337, 4,4,4-trifluoro-3-methyl-N-(3-(3-(trifluoromethyl)phenyl)imidazo[1,2-a]pyridin-2-yl)butanamide]	–	–	EC50 ([1]; FLIPR assay, Table 2): 500 to 3000 nM
O=C(Nc1nc2ccc(F)cn2c1-c1ccc(F)cc1)OCc1ccccc1 [Compound 146, benzyl 6-fluoro-3-(4-fluorophenyl)imidazo[1,2-a]pyridin-2-ylcarbamate]	–	–	EC50 ([1]; FLIPR assay, Table 2): < 500 nM
CC(C)(C)CC(=O)Nc1nc2ccc(F)cn2c1CC1CCCCC1 [Compound 66, N-(3-(cyclohexylmethyl)-6-fluoroimidazo[1,2-a]pyridin-2-yl)-3,3-dimethylbutanamide]	< 500	–	–
CC(C)(C)CC(=O)Nc1nc2ccc(F)cn2c1-c1cccnc1 [Compound 348, N-(6-fluoro-3-(pyridin-3-yl)imidazo[1,2-a]pyridin-2-yl)-3,3-dimethylbutanamide]	–	–	EC50 ([1]; FLIPR assay (Table 3)): 3000 to 10000 nM
CC(C)(C)CC(=O)Nc1nc2ccc(C(F)(F)F)cn2c1-c1nccs1 [Compound 82, 3,3-dimethyl-N-(3-(thiazol-2-yl)-6-(trifluoromethyl)imidazo[1,2-a]pyridin-2-yl)butanamide]	3000 to 10000	–	–
CC(C)(C)CC(=O)N(C(=O)CC(C)(C)C)c1nc2ccc(F)cn2c1-c1nc2ccccc2s1 [Compound 358, N-(3-(benzo[d]thiazol-2-yl)-6-fluoroimidazo[1,2-a]pyridin-2-yl)-N-(3,3-dimethylbutanoyl)-3,3-dimethylbutanamide]	–	–	EC50 ([1]; FLIPR assay (Table 3)): 3000 to 10000 nM
CC(C)(C)CCC(=O)Nc1nc2ccc(F)cn2c1-c1cccc(OC(F)(F)F)c1 [Compound 279, N-(6-fluoro-3-(3-(trifluoromethoxy)phenyl)imidazo[1,2-a]pyridin-2-yl)-4,4-dimethylpentanamide]	–	–	EC50 ([1]; FLIPR assay, Table 2): < 500 nM
CC(CC(=O)Nc1nc2ccc(C(F)(F)F)cn2c1C1CC1)C(F)(F)F (stereo not drawn) [Compound 69, N-(3-cyclopropyl-6-(trifluoromethyl)imidazo[1,2-a]pyridin-2-yl)-4,4,4-trifluoro-3-methylbutanamide]	< 500	–	–
CC(C)(C)CC(=O)Nc1nc2ccc(F)cn2c1-c1ccc(C#N)cn1 [Compound 354, N-(3-(5-cyanopyridin-2-yl)-6-fluoroimidazo[1,2-a]pyridin-2-yl)-3,3-dimethylbutanamide]	–	–	EC50 ([1]; FLIPR assay (Table 3)): 3000 to 10000 nM
O=C(Cc1cccc(Cl)c1)Nc1nc2ccc(C(F)(F)F)cn2c1C1CCCCC1 [Compound 44, 2-(3-chlorophenyl)-N-(3-cyclohexyl-6-(trifluoromethyl)imidazo[1,2-a]pyridin-2-yl)acetamide]	< 500	–	–
O=C(Cc1ccc(F)cc1)Nc1nc2ccccn2c1-c1cccc(OC(F)(F)F)c1 [Compound 344, 2-(4-fluorophenyl)-N-(3-(3-(trifluoromethoxy)phenyl)imidazo[1,2-a]pyridin-2-yl)acetamide]	–	–	EC50 ([1]; FLIPR assay, Table 2): < 500 nM
Cc1cccc2nc(NC(=O)C(F)(F)F)cn12 [Compound 8, 2,2,2-trifluoro-N-(5-methylimidazo[1,2-a]pyridin-2-yl)acetamide]	3000 to 10000	–	–

Source: patent US9018208B2, “Heterocycles as potassium channel modulators” (Icagen Inc., priority 2007, dated 2015)
